# Experimental data from publication PMC10057977, “Use of In Vivo Imaging and Physiologically-Based Kinetic Modelling to Predict Hepatic Transporter Mediated Drug–Drug Interactions in Rats” (Pharmaceutics, 2023).
# Where two headings read alike, the source gives them in different places.
# How the values were obtained:
# [1] = Compartmental pharmacokinetic models of test drugs fitted to published rat data
# Description: For all the selected drugs, compartmental pharmacokinetic models were developed to inform dose selection in the DCE-MRI studies. The one-compartment, two-compartment, or three-compartment pharmacokinetic models, following intravenous and oral administration, were fitted to published pharmacokinetic data for these drugs in rats. The models assumed linear pharmacokinetics of the six drugs investigated, to allow identification of the model parameters with the limited available rat pharmacokinetic data. […] The model equations, sources of pharmacokinetic data, parameters estimates, and criteria for the dose selection for all the drugs are reported in the Supplementary Material, Section S1. […]
# The University of Manchester, Manchester M13 9PL, UK […]
# S1. Pharmacokinetic models for test compounds
# Pharmacokinetic models were developed for selected test compounds to inform dose selection in the dynamic contrast enhanced magnetic resonance imaging (DCE-MRI) studies, as described below. The one-compartment (Eq. S1–
# Eq. S2), two-compartment (Eq. S3–Eq. S5), or three-compartment pharmacokinetic model (Eq. S6 –Eq. S9), following intravenous (IV) and oral administration, was fitted to available pharmacokinetic data in rat (Table S1). The precision of the parameter estimates (% coefficient of variation; CV) was calculated as described previously. […]
# dA1(t) = R + k ∙A (t) − k ∙A (t) for 0 < t < Tinf […]
# dA1(t)= ka ∙AG(t) − k10 ∙ A1(t) for t > Tinf S1 […]
# dA1(t) = R + k ∙A (t) − (k + k )A (t) + k ∙A (t) for 0 < t < Tinf […]
# dA1(t) = k ∙A (t) − (k + k )A (t) + k ∙ A (t) for t > Tinf
# dA2(t)= k A (t) − k A (t) S4
# dA1(t) = Rinf − (k10 + k12 + k13)A1(t) + k21 ∙ A2(t) + k31 ∙ A3(t) for 0 < t < Tinf […]
# dA1(t) = −(k + k + k )A (t) + k ∙ A (t) + k ∙ A (t) for t > Tinf
# dA2(t) = k A (t) − k A (t) S7
# dA3(t) = k A (t) − k A (t) S8
# Initial conditions for oral dose and IV bolus (Rinf=0):
# • Oral dose: AG(0) = dose ∙F, all the other compartments equal to 0;
# • IV bolus: A1(0) = dose, all the other compartments equal to 0.
# Where t is time, An(t) is amount in compartment n at time t; Rinf is IV infusion rate; Tinf is the duration of IV infusion; ka, k10, k12, k21, k13 and k31 are rate constants; V1 is volume of compartment 1; F is oral bioavailability; and Y is the meas-ured drug concentration in plasma or blood.
# These models assume linear kinetics of the test compounds, despite known non-linearity in pharmacokinetics for […]
# The assumption of linear kinetics allowed simplification of the modelling exercise and enabled identification of the model parameters with the available pharmacokinetic data. The models were used to simulate test compound concentrations in plasma under different dosing schedules, to determine suitable doses for in vivo DCE-MRI studies.
# rNtcp = system: rNtcp; set-up: method as in PMID 16258024, PMID 29891589, PMID 21415249, PMID 11883641, PMID 15550721; details: in vitro; cited from earlier work
# rMrp2 = rMrp2 (Rattus norvegicus, UniProt Q63120); set-up: method as in PMID 16258024, PMID 29891589, PMID 21415249, PMID 11883641, PMID 15550721; details: in vitro; NI = reported not to inhibit the transporter; cited from earlier work
# Chain of rMrp2 (Q63120 whole entry): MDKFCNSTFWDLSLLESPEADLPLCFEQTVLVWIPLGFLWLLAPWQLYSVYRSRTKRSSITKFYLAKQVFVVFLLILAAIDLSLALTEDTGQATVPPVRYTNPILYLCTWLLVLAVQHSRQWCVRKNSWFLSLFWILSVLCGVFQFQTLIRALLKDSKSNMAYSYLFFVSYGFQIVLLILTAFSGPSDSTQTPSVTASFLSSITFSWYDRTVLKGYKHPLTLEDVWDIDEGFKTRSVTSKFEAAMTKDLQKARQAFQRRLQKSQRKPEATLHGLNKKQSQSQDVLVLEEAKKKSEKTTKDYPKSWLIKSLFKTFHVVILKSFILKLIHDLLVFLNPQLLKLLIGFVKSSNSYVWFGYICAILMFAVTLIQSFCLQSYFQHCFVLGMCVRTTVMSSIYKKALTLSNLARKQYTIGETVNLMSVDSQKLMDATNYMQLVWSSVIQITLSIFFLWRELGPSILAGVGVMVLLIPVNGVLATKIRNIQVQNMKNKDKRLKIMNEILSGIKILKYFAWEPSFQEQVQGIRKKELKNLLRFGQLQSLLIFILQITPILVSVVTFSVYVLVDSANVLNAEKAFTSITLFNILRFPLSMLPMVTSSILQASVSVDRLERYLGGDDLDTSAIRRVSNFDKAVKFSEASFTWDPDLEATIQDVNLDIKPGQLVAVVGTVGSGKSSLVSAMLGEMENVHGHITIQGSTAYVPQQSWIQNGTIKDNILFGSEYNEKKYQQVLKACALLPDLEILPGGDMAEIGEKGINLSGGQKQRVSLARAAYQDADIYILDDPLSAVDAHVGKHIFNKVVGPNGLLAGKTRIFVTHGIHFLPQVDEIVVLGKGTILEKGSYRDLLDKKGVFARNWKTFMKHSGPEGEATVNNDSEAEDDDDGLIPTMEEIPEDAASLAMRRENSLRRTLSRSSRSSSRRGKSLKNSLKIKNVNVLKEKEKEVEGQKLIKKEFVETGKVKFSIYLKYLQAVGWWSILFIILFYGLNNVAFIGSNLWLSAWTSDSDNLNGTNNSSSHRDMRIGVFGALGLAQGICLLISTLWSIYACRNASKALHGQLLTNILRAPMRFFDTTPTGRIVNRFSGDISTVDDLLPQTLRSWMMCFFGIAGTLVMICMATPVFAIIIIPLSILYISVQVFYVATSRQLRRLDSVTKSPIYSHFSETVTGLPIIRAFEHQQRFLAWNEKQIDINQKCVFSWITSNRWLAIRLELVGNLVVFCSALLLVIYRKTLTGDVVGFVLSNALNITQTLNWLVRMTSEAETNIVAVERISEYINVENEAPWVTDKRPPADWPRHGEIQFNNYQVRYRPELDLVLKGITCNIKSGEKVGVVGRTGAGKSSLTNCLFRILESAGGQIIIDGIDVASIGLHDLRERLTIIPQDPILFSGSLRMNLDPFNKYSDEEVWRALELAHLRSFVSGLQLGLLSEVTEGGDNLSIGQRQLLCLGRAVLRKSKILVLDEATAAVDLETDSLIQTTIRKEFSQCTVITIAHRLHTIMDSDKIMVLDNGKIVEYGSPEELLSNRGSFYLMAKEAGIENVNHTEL
# MRP2 = details: in vitro; bracket not explained in the table; ref 30,43-55 and in-house data from Merck & Co.; cited from earlier work
# [2] = cited from earlier work
# [3] = unbound concentration ratio between hepatocyte and plasma; ref supplement [39] rifampicin, [40] asunaprevir, [41] bosentan, ciclosporin, ketoconazole; cited from earlier work
# OATP1B = system: OATP1B; set-up: method as in supplement [18]; details: plasma AUC ratio; ref supplement [18]; cited from earlier work
# NTCP = system: NTCP; set-up: method as in earlier work; details: in vitro; ref 30,43-55 and in-house data from Merck & Co.; cited from earlier work
# [4] = set-up: method as in supplement [33]; details: clinical; ref supplement [33]; cited from earlier work
# rOatp1a4 = details: in vitro, cited from earlier work
# [5] = in vivo; cited from earlier work
# [6] = two-compartment model, rat plasma, fitted to published IV data
# [7] = three-compartment model, rat, IV data (ciclosporin: blood; bosentan: plasma, example estimates)
# [8] = one-compartment model, rat, fitted to published PK data
Compound,"V1 [1, 6] [mL]","k10 [1, 6] [h⁻¹]","k12 [1, 6] [h⁻¹]","k21 [1, 6] [h⁻¹]",IC50 (rNtcp) [µM],IC50 (rMrp2) [µM],IC50 (MRP2) [µM],Kpuu [3],IC50 (NTCP) [µM],"V1 [1, 8] [mL]",also measured
C=C[C@@H]1C[C@]1(NC(=O)[C@@H]1C[C@@H](Oc2ncc(OC)c3ccc(Cl)cc23)CN1C(=O)[C@@H](NC(=O)OC(C)(C)C)C(C)(C)C)C(=O)NS(=O)(=O)C1CC1 [Asunaprevir],96.0,6.79,3.71,1.60,0.6,11,4,11.5,–,–,"Cmax ([2]; human plasma, daily dose 200 mg (asunaprevir), read-out: Cmax (µM) [Daily Dose]): 0.76 µM; AUCR of rosuvastatin (presence vs absence of inhibitor) (OATP1B): < 2 fold"
COc1ccccc1Oc1c(NS(=O)(=O)c2ccc(C(C)(C)C)cc2)nc(-c2ncccn2)nc1OCCO [Bosentan],32,5.0,3.8,3.5,0.4,–,> 100,3,18,–,"k10 ([1]; three-compartment model, rat, IV data (ciclosporin: blood; bosentan: plasma, example estimates highly sensitive to initial estimates)): 5.1 h⁻¹; K31 [1, 7]: 0.13 h⁻¹; V1 [1, 7]: 26 mL; k12 [1, 7]: 6.1 h⁻¹; k13 [1, 7]: 0.90 h⁻¹; k21 [1, 7]: 4.3 h⁻¹; Cmax ([2]; human plasma, daily dose 250 mg, read-out: Cmax (µM) [Daily Dose]): 3.3 µM; treated patients with mild liver dysfunction [4]: about 10%"
CCc1ccc(CCOc2ccc(CC3SC(=O)NC3=O)cc2)nc1 (centres unmarked) [Pioglitazone],–,–,–,–,–,–,> 133,–,–,88,"F ([1]; oral bioavailability, one-compartment model, rat): 0.66; Cmax ([2]; human plasma, daily dose 30 mg, read-out: Cmax (µM) [Daily Dose]): 4.8 µM"
CO[C@H]1/C=C/O[C@@]2(C)Oc3c(C)c(O)c4c(O)c(c(/C=N/N5CCN(C)CC5)c(O)c4c3C2=O)NC(=O)/C(C)=C\C=C\[C@H](C)[C@H](O)[C@@H](C)[C@@H](O)[C@@H](C)[C@H](OC(C)=O)[C@@H]1C [Rifampicin],–,–,–,–,–,20 to 53,55,–,277,182.1,"k10 [1, 8]: 0.294 h⁻¹; Ki (MRP2): 24.3 µM; Cmax ([2]; human plasma, daily dose 600 mg, read-out: Cmax (µM) [Daily Dose]): 0.85 µM; Cmax ([2]; human, ref supplement [17], read-out: typical maximum plasma concentration (Cmax) in clinical studies): 4 to 20 µM; IC50 (rOatp1a4; read-out: IC50 (µM) rOatp1a4): 1.3 µM; Ki (rOatp1a4; read-out: Ki (µM) rOatp1a4): 2.9 µM"
"CCOc1ccc(C[C@@H](CN(CCN(CC(=O)[O-])CC(=O)[O-])CC(=O)[O-])N(CC(=O)[O-])CC(=O)[O-])cc1.[Gd+3].[H+].[H+] [gadoxetate, Gadoxetate]",–,–,–,–,–,–,–,–,–,–,hepatic extraction [5]: approx. 20%
